Test results as given in publication PMC8742467, “Therapeutical interference with the epigenetic landscape of germ cell tumors: a comparative drug study and new mechanistical insights” (Clinical Epigenetics, 2022).

Legend:
[1] = test system: DNA methylation (5mC, 5hmC) in 2102EP cells; assay: DNA slot blot (5mC, 5hmC); type: cell-based, Human; settings: 24 h
Procedure: Purity of DNA was verified using NanoDrop 260/280 ratio and agarose gel electrophoresis. DNA was diluted in H2O to 200 ng, 100 ng and 50 ng in 200 µl per slot. Slot-Blotter device (Carl Roth GmbH + Co KG, Karlsruhe, Germany) was assembled as according to the manual. DNA was blotted onto a positively charged nylon membrane (Carl Roth GmbH + Co KG, Karlsruhe, Germany) using vacuum application. Three identical membranes were prepared. The membranes were air-dried for 15—20 min and UV-crosslinked (20 s (s), 1200 mJ/cm^2). One membrane was stained with methylene blue (0.02% methylene blue (Merck Millipore, Darmstadt, Germany) in 0.3 M sodium acetate (pH 5.2)) to validate DNA loading across the samples. The remaining two membranes were blocked in 5% milk powder in PBST for 1 h at RT. Membranes were incubated with 5mC or 5hmC antibody overnight at 4 °C. After washing, membranes were incubated with secondary antibody for 2 h at RT. Signals were detected using the ChemiDoc Imaging Systems (Bio-Rad Laboratories, Feldkirchen, Germany).

[2] = test system: phosphorylated kinase targets in 2102EP cells; assay: Proteome Profiler Human Phospho-Kinase Array; type: cell-based; settings: 16 h
Procedure: For the detection of phosphorylated kinase targets, the Proteome Profiler Human Phospho-Kinase Array Kit (R&D Systems, Abingdon, UK) was used according to the manufacturer’s instructions. The ChemiDoc Imaging System (Bio-Rad Laboratories, Feldkirchen, Germany) was used for detection. 2102EP cells were harvested after 16 h of treatment with the epi-drugs. Pixel density was analyzed using Fiji ImageJ 1.53c.

[3] = test system: EC-R (cisplatin-resistant embryonal carcinoma subclones); assay: XTT cell viability assay, mean per entity EC-R; type: cell-based; settings: Homo sapiens, after 48 h
Procedure: (§1) The […] (XTT) assays were performed as described previously. In summary, for GCT and fibroblast cell lines 5 × 10^3 cells (3 × 10^3 for UC, PCa and RCC cell lines) per 96-well were seeded and different drug concentrations (see Additional file 2: Fig. S2, Additional file 3: Fig. S3) or corresponding solvents were added to the cells the following day. For drug details see Additional file 12: Table S2 C. Each condition was analyzed in four technical replicates and EC50 values were calculated by GraphPad Prism v8.

[4] = test system: fibroblasts (MPAF, HVHF2); assay: XTT cell viability assay, fibroblasts; type: cell-based; settings: Homo sapiens, Fibroblast; after 48 h, mean
Procedure: as §1

SE (seminoma) cell lines = assay: XTT cell viability assay, mean per entity SE; type: cell-based; settings: Homo sapiens, after 48 h
Procedure: as §1

[5] = test system: EC (embryonal carcinoma) cell lines; assay: XTT cell viability assay, mean per entity EC; type: cell-based; settings: Homo sapiens, after 48 h
Procedure: as §1

Sertoli cells FS1 (SC) = assay: XTT cell viability assay, Sertoli cells; type: cell-based; settings: Homo sapiens; after 48 h
Procedure: as §1

2102EP (EC) = assay: XTT cell viability assay, 2102EP; type: cell-based; settings: Homo sapiens; after 48 h, XTT, n = 4; read-out: EC50 colour/symbol code, EC 2102EP
Method in brief: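 Viability by XTT reduction after drug or solvent addition one day post-seeding; seeding density 3 × 10^3 cells/well for UC lines and 5 × 10^3 for GCT lines. Four technical replicates each; EC50 values derived by curve fitting.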

[6] = test system: SE-R (cisplatin-resistant seminoma subclone); assay: XTT cell viability assay, mean per entity SE-R; type: cell-based; settings: Homo sapiens, after 48 h
Procedure: as §1

[7] = test system: histone modifications in 2102EP cells; assay: Mass spectrometry analysis of histone modifications (Mod Spec); type: cell-based, Human; settings: 2102EP cells; Mod Spec raw data
Method in brief: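 2102EP cells were treated for 16 h with EC50 concentrations of Quisinostat, JIB-04, Chaetocin, MZ-1, LP99, PRT4165 or GSK343, with DMSO as solvent control. After trypsin harvest, histones were extracted and analysed by mass spectrometry. Raw data were converted to z-scores.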

CCCc1cc(C)[nH]c(=O)c1CNC(=O)c1cc(-c2ccnc(N3CCN(C)CC3)c2)cc2c1cnn2C(C)C [GSK343]
5hmC levels increase compared to solvent control [1]: 30%
5mC levels compared to solvent control ([1]; solvent control set to 100%): 52%
CREB, STAT3 and STAT5 phosphorylation and total levels of β-Catenin and HSP60 [2]: decreased
ERK1/2 phosphorylation [2]: decreased
EC50 [3]: 9.41 µM
EC50 [4]: 9.79 µM
EC50 (SE (seminoma) cell lines): 12.1 µM
EC50 [5]: 10.6 µM
EC50 (Sertoli cells FS1 (SC)): 10.6 µM
EC50 (2102EP (EC)): 1 to 50 µM
EC50 [6]: 10.1 µM
H1.4: K25AC, % of peptide pool [7]: 0.006216%
H1.4: K25ME1, % of peptide pool [7]: 2.263%
H1.4: K25ME2, % of peptide pool [7]: 0.05379%
H1.4: K25ME3, % of peptide pool [7]: 0.00622%
H1.4: K25UN, % of peptide pool [7]: 97.6705%
H2A1: K13AC, % of peptide pool [7]: 0.008349%
H2A1: K13UN, % of peptide pool [7]: 99.9917%
H2A1: K15AC, % of peptide pool [7]: 0.01155%
H2A1: K15UB, % of peptide pool [7]: 0%
H2A1: K15UN, % of peptide pool [7]: 99.9884%
H2A3: K13AC, % of peptide pool [7]: 0.06695%
H2A3: K13UN, % of peptide pool [7]: 99.933%
H2A3: K15AC, % of peptide pool [7]: 0.06714%
H2A3: K15UB, % of peptide pool [7]: 0%
H2A3: K15UN, % of peptide pool [7]: 99.9329%
H2A: K5AC, % of peptide pool [7]: 13.1006%
H2A: K5UN, % of peptide pool [7]: 86.8994%
H2A: K9AC, % of peptide pool [7]: 1.639%
H2A: K9UN, % of peptide pool [7]: 98.3613%
H2A: K36AC, % of peptide pool [7]: 0.03993%
H2A: K36UN, % of peptide pool [7]: 99.9601%
H3: K9AC, % of peptide pool [7]: 0.6993%
H3: K9ME1, % of peptide pool [7]: 34.216%
H3: K9ME2, % of peptide pool [7]: 32.7434%
H3: K9ME3, % of peptide pool [7]: 3.375%
H3: K9UN, % of peptide pool [7]: 28.9663%
H3: K14AC, % of peptide pool [7]: 31.7092%
H3: K14UN, % of peptide pool [7]: 68.2908%
H3: K18AC, % of peptide pool [7]: 12.5517%
H3: K18ME1, % of peptide pool [7]: 0.1858%
H3: K18UN, % of peptide pool [7]: 87.2625%
H3: K23AC, % of peptide pool [7]: 21.2228%
H3: K23ME1, % of peptide pool [7]: 0.01722%
H3: K23UN, % of peptide pool [7]: 78.76%
H3: K56AC, % of peptide pool [7]: 0.2947%
H3: K56ME1, % of peptide pool [7]: 0.4365%
H3: K56UN, % of peptide pool [7]: 99.2689%
H3: K64AC, % of peptide pool [7]: 0.01667%
H3: K64UN, % of peptide pool [7]: 99.9833%
H3: K79AC, % of peptide pool [7]: 0.7184%
H3: K79ME1, % of peptide pool [7]: 16.7848%
H3: K79ME2, % of peptide pool [7]: 6.651%
H3: K79ME3, % of peptide pool [7]: 10.1333%
H3: K79UN, % of peptide pool [7]: 65.7124%
